Reference: publication PMC9775191, “A Subset Screen of the Compounds Australia Scaffold Library Identifies 7-Acylaminodibenzoxazepinones as Potent and Selective Hits for Anti-Giardia Drug Discovery” (Biomedicines, 2022)

system: G. duodenalis BRIS/91/HEPU/1279; test: Primary Giardia screen at 10 µM (live-cell imaging, automated counting); assay type: cell-based, Giardia duodenalis; conditions: 24 h
In short: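 One concentration, 10 μM, is screened per compound in singlicate under microaerophilic gas (3% O2, 5% CO2, N2). Inhibition comes from automated image-based counts at 24 and 48 h, relative to 0.2% DMSO controls.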

Going from `COc1ccc(Cl)cc1NC(=O)Nc1ccc2c(c1)CN(Cc1ccccc1)C2` [SN00796317] to `Cn1nc(-c2nnc(-c3ccccc3Cl)o2)c2c1CCN(C(=O)c1ccc(F)c(F)c1)C2` [SN00796834], the “Average % Inhibition 24h” value falls from 8.8% to 6.4%.

same assay, conditions: 24 h, first singlicate assay

First: COc1ccc(Cl)cc1NC(=O)Nc1ccc2c(c1)CN(Cc1ccccc1)C2 [SN00796317]
Second: Cn1nc(-c2nnc(-c3ccccc3Cl)o2)c2c1CCN(C(=O)c1ccc(F)c(F)c1)C2 [SN00796834]
The “% Inhibition n=1 24h” value of the first is higher: 17.7% for the first, 12.9% for the second.

same assay, conditions: 24 h, re-assessment

`COc1ccc(Cl)cc1NC(=O)Nc1ccc2c(c1)CN(Cc1ccccc1)C2` [SN00796317] and `Cn1nc(-c2nnc(-c3ccccc3Cl)o2)c2c1CCN(C(=O)c1ccc(F)c(F)c1)C2` [SN00796834] are the same in “% Inhibition n=2 24h” value: 0.0% for the first, 0.0% for the second.

same assay, conditions: 48 h

First: COc1ccc(Cl)cc1NC(=O)Nc1ccc2c(c1)CN(Cc1ccccc1)C2 [SN00796317]
Second: Cn1nc(-c2nnc(-c3ccccc3Cl)o2)c2c1CCN(C(=O)c1ccc(F)c(F)c1)C2 [SN00796834]
The “Average % Inhibition 48h” value of the first is higher: 37.5% for the first, 12.8% for the second.

same assay, conditions: 48 h, first singlicate assay

First: COc1ccc(Cl)cc1NC(=O)Nc1ccc2c(c1)CN(Cc1ccccc1)C2 [SN00796317]
Second: Cc1ccc(NC(=O)Nc2ccc3c(c2)CN(Cc2ccccc2)C3)c(C)c1 [SN00796327]
The “% Inhibition n=1 48h” value of the first is higher: 57.6% for the first, 41.2% for the second.

Going from `O=C(c1nnn(-c2ccccc2Cl)c1-c1ccncc1)N1CCc2ccccc2C1` [SN00796355] to `O=C(NCC1CC1)c1nnn(-c2ccccc2)c1-c1ccncc1` [SN00796358], the “% Inhibition n=1 48h” value falls from 30.9% to 0.0%.

Compared with `CCOC(=O)N1CCN(c2cc(-c3nc(-c4cccc(OC)c4OC)no3)c3ccccc3n2)CC1` [SN00796395], `COc1cccc(-c2noc(-c3cc(N4CCN(C(C)=O)CC4)nc4ccccc34)n2)c1OC` [SN00796396] is lower in “% Inhibition n=1 48h” value: 18.1% for the first, 7.7% for the second.

`CC(C)C(=O)N1CCc2c(c(COCc3ccccc3F)nn2C)C1` [SN00796410] and `COCC(=O)N1CCc2c(c(COCc3ccc(C)cc3)nn2C)C1` [SN00796424] are the same in “% Inhibition n=1 48h” value: 0.0% for the first, 0.0% for the second.

Compared with `Cc1ccc(COCc2nn(C)c3c2CN(C(=O)Nc2ccccc2)CC3)cc1` [SN00796435], `Cc1ccc(COCc2nn(C)c3c2CN(S(=O)(=O)c2ccc(F)c(C)c2)CC3)cc1` [SN00796451] is higher in “% Inhibition n=1 48h” value: 0.0% for the first, 2.1% for the second.

`CCc1nc(N2CCCC2=O)sc1C(=O)Nc1ccc(C)c(C)c1` [SN00796500] and `Cc1ccc(NC(=O)Cn2c(=O)nc(NC3CCCC3)c3ccccc32)cc1C` [SN00797075] are the same in “% Inhibition n=1 48h” value: 0.0% for the first, 0.0% for the second.

Going from `Cc1ccc(-c2nc(C(=O)N3CCN(c4ccc(Cl)cc4)CC3)cs2)s1` [SN00796526] to `O=C(c1nnn(-c2ccc(Cl)cc2)c1-c1cccnc1)N1CCCCC1` [SN00796543], the “% Inhibition n=1 48h” value rises from 7.8% to 20.4%.

Compared with `Cc1ccc(CNC(=O)c2ccc(-n3cnc(NC(=O)C(C)C)c3)cc2)cc1` [SN00796570], `COc1ccc(CNC(=O)c2ccc(-c3noc(C4CCCN(C(=O)c5ccccc5)C4)n3)cc2)cc1` (centres unmarked) [SN00797402] is lower in “% Inhibition n=1 48h” value: 29.7% for the first, 14.7% for the second.

Going from `Cc1ccc2oc(-c3noc(C4CC(=O)N(c5ccccc5)C4)n3)c(C)c2c1` (centres unmarked) [SN00796597] to `Cc1ccc(N2CC(C(=O)N3CCCC3c3nc(-c4cccc(C)c4)no3)CC2=O)cc1` (centres unmarked) [SN00797413], the “% Inhibition n=1 48h” value falls from 2.9% to 0.0%.

Going from `COc1ccc2oc(-c3noc(C(NC(=O)c4ccco4)C(C)C)n3)c(C)c2c1` (centres unmarked) [SN00796606] to `COc1ccc2cc(-c3csc(Cc4nc(-c5ccccn5)no4)n3)c(=O)oc2c1` [SN00797738], the “% Inhibition n=1 48h” value falls from 9.9% to 2.5%.

Compared with `Cc1ccc(-c2noc(-c3ccc(N4CCN(Cc5ccc6c(c5)OCO6)CC4)nc3)n2)cc1` [SN00796635], `CCN1CCN(c2ccc(-c3nc(-c4cccc(F)c4)no3)cn2)CC1` [SN00796649] is higher in “% Inhibition n=1 48h” value: 7.2% for the first, 48.2% for the second.

Going from `CCc1ccc(NC(=O)N2CCc3c(c(-c4nc(C)no4)nn3C)C2)cc1` [SN00796748] to `Cc1noc(-c2nn(C)c3c2CN(S(=O)(=O)Cc2cccc(F)c2)CC3)n1` [SN00796798], the “% Inhibition n=1 48h” value falls from 19.4% to 14.3%.

First: Cn1nc(-c2nnc(-c3ccccc3Cl)o2)c2c1CCN(C(=O)c1ccc(F)c(F)c1)C2 [SN00796834]
Second: CCCS(=O)(=O)N1CCc2c(c(-c3nnc(-c4ccc(F)cc4)o3)nn2C)C1 [SN00796867]
The “% Inhibition n=1 48h” value of the first is higher: 25.5% for the first, 0.0% for the second.

First: COc1ccc(S(=O)(=O)N(C)c2ccsc2C(=O)NCCC(C)C)cc1 [SN00797030]
Second: Cc1ccc(S(=O)(=O)N(C)c2ccsc2C(=O)Nc2ccc(C)c(C)c2)cc1 [SN00797041]
The “% Inhibition n=1 48h” value of the first is lower: 10.4% for the first, 12.0% for the second.

First: O=C(NCc1cccc(C(F)(F)F)c1)C1CCCN(c2nccnc2Oc2ccccc2)C1 (centres unmarked) [SN00797123]
Second: COc1cccc(CNC(=O)C2CCCN(c3nccc4c(C)nn(C)c34)C2)c1 (centres unmarked) [SN00797953]
The “% Inhibition n=1 48h” value of the first is higher: 15.6% for the first, 0.0% for the second.

Compared with `CCC(=O)Nc1cccc(-c2noc(C3CCCN(C(=O)c4ccc(C)c(F)c4)C3)n2)c1` (centres unmarked) [SN00797220], `Cc1ccc(NC(=O)c2ccc(-c3noc(C4CCCN(C(=O)c5ccccc5)C4)n3)cc2)cc1` (centres unmarked) [SN00797407] is lower in “% Inhibition n=1 48h” value: 14.6% for the first, 5.6% for the second.

Going from `Cc1nc(-c2cc(S(=O)(=O)N3CCCCCC3)c(C)s2)sc1C` [SN00797236] to `CCN(c1cccc(C)c1)S(=O)(=O)c1cc(-c2nc(C)c(C)s2)sc1C` [SN00797239], the “% Inhibition n=1 48h” value falls from 11.8% to 10.7%.

Going from `Cc1cc(-c2csc(S(=O)(=O)Nc3ccc(Cl)c(C(F)(F)F)c3)c2)on1` [SN00797257] to `CCCn1nccc1-c1csc(S(=O)(=O)NC(C)C)c1` [SN00797311], the “% Inhibition n=1 48h” value rises from 0.0% to 9.7%.

First: Cc1cccc(CC(=O)N2CCN(c3nc4cccnc4n(Cc4ccccc4)c3=O)CC2)c1 [SN00797319]
Second: COc1ccc(-c2nnc(-c3cccnc3N3CCN(C(=O)c4cccc(OC)c4)CC3)o2)cc1 [SN00797707]
The “% Inhibition n=1 48h” value of the first is higher: 38.8% for the first, 2.3% for the second.

First: C=CCn1c(=O)c(N2CCC(NC(=O)NC3CCCC3)CC2)nc2cccnc21 [SN00797341]
Second: CC1CCC(NC(=O)c2ccc(-c3noc(C4CCN(C(=O)c5ccccc5)CC4)n3)cc2)CC1 (centres unmarked) [SN00797379]
The “% Inhibition n=1 48h” value of the first is higher: 6.8% for the first, 0.0% for the second.

First: COc1ccc(-c2nc(Cn3nnc(C(=O)Nc4ccc(F)cc4F)c3N)c(C)o2)c(OC)c1 [SN00797364]
Second: COc1ccc(OC)c(NC(=O)C2CC(=O)N(c3cccc(NC(C)=O)c3)C2)c1 (centres unmarked) [SN00797576]
The “% Inhibition n=1 48h” value of the first is higher: 3.5% for the first, 0.0% for the second.

`Cc1ccc(C(=O)N2CCCC2c2nc(-c3cccc(C)c3)no2)cc1` (centres unmarked) [SN00797416] and `Cc1cccc(-c2noc(C3CCCN3S(=O)(=O)c3ccc(C(C)(C)C)cc3)n2)c1` (centres unmarked) [SN00797487] are the same in “% Inhibition n=1 48h” value: 0.0% for the first, 0.0% for the second.

`O=C(NCCc1ccccc1)N1CCCC1c1nc(-c2ccccc2)no1` (centres unmarked) [SN00797440] and `Cc1cccc(-c2noc(C3CCCN3S(=O)(=O)c3cc(C)c(C)cc3C)n2)c1` (centres unmarked) [SN00797488] are the same in “% Inhibition n=1 48h” value: 0.0% for the first, 0.0% for the second.

Compared with `CCCNC(=O)Cn1cccc1-c1nc(-c2ccc(Cl)cc2)cs1` [SN00797520], `COc1cccc(CNC(=O)Cn2ccc3sccc3c2=O)c1` [SN00797886] is lower in “% Inhibition n=1 48h” value: 24.8% for the first, 6.6% for the second.

Going from `COc1ccc(CNS(=O)(=O)c2ccc3onc(C(=O)N4CCCCC4)c3c2)cc1OC` [SN00797555] to `COc1ccc(CCNS(=O)(=O)c2cccc(-c3nc(-c4ccc(C)cc4)no3)c2)cc1OC` [SN00797669], the “% Inhibition n=1 48h” value rises from 0.0% to 6.7%.

Going from `O=C(Nc1ccc2sc(NS(=O)(=O)c3ccccc3)nc2c1)Nc1ccccc1Cl` [SN00797595] to `O=C(NCC1CCCO1)Nc1ccc2sc(NS(=O)(=O)c3ccccc3)nc2c1` (centres unmarked) [SN00797600], the “% Inhibition n=1 48h” value rises from 4.6% to 23.5%.

Going from `COc1ccc(CNC(=O)c2sc(Nc3ccc(F)cn3)nc2C)cc1` [SN00797617] to `COc1ccc(CNC(=O)c2cc3c(=O)n(Cc4ccccc4)ccc3s2)cc1` [SN00797837], the “% Inhibition n=1 48h” value falls from 12.4% to 0.0%.

Compared with `Cc1ccnc(Nc2nc(C)c(C(=O)NC3CC3)s2)c1` [SN00797622], `CCCCOc1ccc(CNC(=O)C2CCN(c3nccc4sc(C)cc34)CC2)cc1` [SN00797785] is higher in “% Inhibition n=1 48h” value: 13.3% for the first, 27.9% for the second.

`Cc1ccc(-c2noc(-c3cccc(S(=O)(=O)N4CCN(c5ccc(F)cc5)CC4)c3)n2)cc1` [SN00797676] and `Cc1ccc(-c2nnc(-c3cccnc3N3CCCC3)o2)cc1` [SN00797693] are the same in “% Inhibition n=1 48h” value: 0.0% for the first, 0.0% for the second.

Going from `CCCOc1ccc(-c2noc(Cc3nc(-c4cccc(OC)c4)cs3)n2)cc1` [SN00797723] to `COc1cccc(CNC(=O)c2nsc(C(=O)NCc3ccccc3F)c2N)c1` [SN00797759], the “% Inhibition n=1 48h” value rises from 4.6% to 13.9%.

Compared with `NC(=O)C1CCN(C(=O)c2snc(C(=O)NCc3ccccc3)c2N)CC1` [SN00797750], `CCC(C)NC(=O)c1cc2c(=O)n(Cc3ccccc3)ccc2s1` (centres unmarked) [SN00797832] is higher in “% Inhibition n=1 48h” value: 8.9% for the first, 11.3% for the second.

First: Cn1ccc2c(cc(C(=O)N3CCC(N4CCCCC4)CC3)n2C)c1=O [SN00797819]
Second: Cc1ccc(NC(=O)c2cc3c(=O)n(CC(C)C)ccc3n2C)cc1 [SN00797828]
The “% Inhibition n=1 48h” value of the first is higher: 18.7% for the first, 17.5% for the second.

First: COc1ccccc1OCCNC(=O)Cn1ccc2c(c(C)nn2-c2ccccc2)c1=O [SN00797916]
Second: CCCS(=O)(=O)c1nc2ccc(NS(=O)(=O)CCc3ccccc3)cc2s1 [SN00797950]
The “% Inhibition n=1 48h” value of the first is higher: 27.1% for the first, 20.2% for the second.

With `CCS(=O)(=O)c1nc2ccc(NS(=O)(=O)c3ccc4c(c3)OCCO4)cc2s1` [SN00797922] the “% Inhibition n=1 48h” value was 0.0%.

same assay, conditions: 48 h, re-assessment

First: COc1ccc(Cl)cc1NC(=O)Nc1ccc2c(c1)CN(Cc1ccccc1)C2 [SN00796317]
Second: Cn1nc(-c2nnc(-c3ccccc3Cl)o2)c2c1CCN(C(=O)c1ccc(F)c(F)c1)C2 [SN00796834]
The “% Inhibition n=2 48h” value of the first is higher: 17.4% for the first, 0.0% for the second.
